Marks after values point to notes of the source that are not given here.
Tests used:
Type in all cases: in vivo
Details in all cases: 100 = 100% disease control
[1] = test system: Puccinia recondita f. sp. tritici; experiment: Test H: wheat leaf rust, test suspension sprayed after inoculation of wheat seedlings, visual disease rating
Procedure, shortened: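 Wheat seedlings inoculated with P. recondita spores, held 24 h saturated at 20 °C, then 2 days in growth chamber at 20 °C; compound suspension (acetone/water with Trem 014) sprayed to run-off afterwards. Rated visually; 200 ppm (≈500 g/ha) unless marked *, which denotes 40 ppm.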

[2] = test system: Erysiphe graminis f. sp. tritici; experiment: Test J: wheat powdery mildew on wheat seedlings, sprayed the day before inoculation, visual disease rating
Procedure, shortened: (§1)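 Test rate was 200 ppm, sprayed to run-off and equal to 500 g/ha, or 40 ppm where marked. The compound was first taken up in acetone at 3% of final volume and suspended in acetone/purified water (50/50) containing 250 ppm Trem® 014.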

[3] = test system: Puccinia recondita f. sp. tritici; experiment: Test I: wheat leaf rust on wheat seedlings, sprayed the day before inoculation, visual disease rating
Procedure, shortened: as §1

Septoria nodorum = experiment: Test F: wheat glume blotch on wheat seedlings, sprayed the day before inoculation, visual disease rating
Procedure, shortened: as §1

Alternaria solani = experiment: Test D: tomato early blight, sprayed the day before inoculation, visual disease rating
Procedure, shortened: as §1

Botrytis cinerea = experiment: Test C: tomato Botrytis on tomato seedlings, sprayed the day before inoculation, visual disease rating
Procedure, shortened: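 Each compound is first taken up in acetone at 3% of the final volume and then brought to the desired ppm in a 50:50 acetone–water mix with 250 ppm surfactant (polyhydric alcohol esters). Tomato seedlings receive the suspension to run-off, normally at 200 ppm, occasionally 40 ppm.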

Septoria tritici = experiment: Test G: wheat leaf blotch on wheat seedlings, sprayed the day before inoculation, visual disease rating
Procedure, shortened: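 Seedlings receive a protective spray of test suspension in acetone/water carrying 250 ppm surfactant, mostly at 200 ppm and at 40 ppm where marked. They are inoculated the next day, kept saturated at 24° C for 48 h, then held at 20° C for 19 days before visual scoring.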

[4] = 200 ppm, 0 = no control relative to controls

Row | Structure (SMILES) | Test H disease control rating [1, 4] [%] | Test J disease control rating [2, 4] [%] | Test I disease control rating [3, 4] [%] | Test F disease control rating (Septoria nodorum; [4]) [%] | Test D disease control rating (Alternaria solani; [4]) [%] | Test C disease control rating (Botrytis cinerea; [4]) [%] | Test G disease control rating (Septoria tritici; [4]) [%] | Test H disease control rating ([1]; 40 ppm (marked *)) | Test J disease control rating ([2]; 40 ppm (marked *)) | Test I disease control rating ([3]; 40 ppm (marked *)) | Test F disease control rating (Septoria nodorum; 40 ppm (marked *)) | Test D disease control rating (Alternaria solani; 40 ppm (marked *)) | Test C disease control rating (Botrytis cinerea; 40 ppm (marked *)) | Test G disease control rating (Septoria tritici; 40 ppm (marked *))
1 | COc1cc(F)c(-c2c(Cl)nc(Cl)n2-c2cc(C)cnc2Cl)c(F)c1 [compound 677] | 100 | 100 | 100 | 100 | 100 | 100 | 99 |  |  |  |  |  |  | 
2 | COc1cc(F)c(-c2c(Cl)nc(Cl)n2-c2cncc(Br)c2)c(F)c1 [compound 678] | 100 | 100 | 100 | 100 | 100 | 100 | 99 |  |  |  |  |  |  | 
3 | N#Cc1ccc(F)c(-c2c(Cl)nc(Cl)n2-c2ccc(F)cc2)c1F [compound 679] | 18 | 100 | 100 | 99 | 100 | 100 | 99 |  |  |  |  |  |  | 
4 | Cc1ccc(-n2c(Cl)nc(Cl)c2-c2c(F)ccc(C#N)c2F)cc1 [compound 680] | 0 | 100 | 100 | 98 | 100 | 99 | 100 |  |  |  |  |  |  | 
5 | N#Cc1ccc(F)c(-c2c(Cl)nc(Cl)n2-c2cccc(F)c2)c1F [compound 681] | 0 | 100 | 99 | 98 | 100 | 99 | 99 |  |  |  |  |  |  | 
6 | Cc1nc(Br)n(-c2ccc(Cl)nc2)c1-c1c(F)cccc1F [compound 682] | 97 | 100 | 100 | 99 | 100 | 100 | 100 |  |  |  |  |  |  | 
7 | COc1cc(F)c(-n2cnc(C)c2-c2cccc(F)c2)c(F)c1 [compound 683] |  |  |  |  |  |  |  | 8* % | 98* % | 0* % | 0* % | 97* % | 100* % | 67* %
8 | CCOc1ccc(F)c(-c2c(Cl)nc(C)n2-c2ccc(Cl)cc2)c1F [compound 684] | 53 | 100 | 99 | 100 | 100 | 100 | 99 |  |  |  |  |  |  | 
9 | COc1cc(F)c(-n2c(Cl)nc(C)c2-c2cccc(F)c2)c(F)c1 [compound 686] |  |  |  |  |  |  |  | 98* % | 98* % | 99* % | 82* % | 100* % | 100* % | 98* %
10 | COc1cc(F)c(-n2c(Br)nc(C)c2-c2cccc(F)c2)c(F)c1 [compound 687] |  |  |  |  |  |  |  | 100* % | 100* % | 100* % | 99* % | 100* % | 100* % | 98* %
11 | COc1cc(F)c(-n2cnc(C)c2-c2ccc(Cl)cc2)c(F)c1 [compound 688] |  |  |  |  |  |  |  | 8* % | 78* % | 0* % | 0* % | 33* % | 100* % | 97* %
12 | CN(C)c1ccc(-n2c(Br)nc(N(C)C)c2-c2c(F)cccc2F)cc1Br [compound 689] | 0 | 0 | 0 | 0 | 0 | 0 | 0 |  |  |  |  |  |  | 
13 | COC(=O)c1ccc(-n2c(Br)nc(Cl)c2-c2c(F)cccc2F)cc1 [compound 690] | 0 | 81 | 74 | 0 | 0 | 78 | 98 |  |  |  |  |  |  | 
14 | N#Cc1ccc(F)c(-c2c(Cl)nc(Cl)n2-c2ccc(Cl)nc2)c1F [compound 691] |  |  |  |  |  |  |  | 39* % | 64* % | 82* % | 51* % | 99* % | 99* % | 95* %
15 | CNc1nc(Cl)c(-c2c(F)cc(OC)cc2F)n1-c1ccc(Cl)cc1 [compound 692] | 8 | 79 | 0 | 0 | 70 | 100 | 99 |  |  |  |  |  |  | 
16 | Cc1nc(Cl)n(-c2ccc(Cl)nc2)c1-c1c(F)cccc1F [compound 693] | 100 | 100 | 100 | 99 | 100 | 100 | 99 |  |  |  |  |  |  | 
17 | COc1cc(F)c(-c2c(Cl)nc(SC)n2-c2ccc(C)cc2)c(F)c1 [compound 695] | 97 | 96 | 99 | 97 | 99 | 100 | 99 |  |  |  |  |  |  | 
18 | N#Cc1ccc(F)c(-c2cnc(Cl)n2-c2ccc(Cl)nc2)c1F [compound 697] | 8 | 93 | 19 | 0 | 91 | 100 | 98 |  |  |  |  |  |  | 
19 | COc1ccc(-c2c(Cl)nc(Cl)n2-c2ccc(Cl)cc2Cl)cc1 [compound 698] | 0 | 56 | 83 | 0 | 0 | 99 | 99 |  |  |  |  |  |  | 
20 | COc1cc(F)c(-c2cnc(Cl)n2-c2ccc(C(F)(F)F)nc2)c(F)c1 [compound 699] | 0 | 99 | 41 | 0 | 99 | 100 | 99 |  |  |  |  |  |  | 
21 | Cc1ncc(-c2ccc(Cl)cc2)n1-c1c(F)cc([N+](=O)[O-])cc1F [compound 700] |  |  |  |  |  |  |  | 0* % | 0* % | 0* % | 0* % | 0* % | 93* % | 53* %
22 | N#Cc1ccc(F)c(-c2c(Cl)nc(Br)n2-c2ccc(Cl)nc2)c1F [compound 701] | 7 | 95 | 100 | 91 | 100 | 100 | 99 |  |  |  |  |  |  | 
23 | CCOc1cc(F)c(-c2c(Cl)ncn2-c2ccc(F)cc2)c(F)c1 [compound 702] | 59 | 99 | 86 | 99 | 100 | 100 | 99 |  |  |  |  |  |  | 
24 | CCOc1cc(F)c(-c2c(Cl)ncn2-c2cccc(F)c2)c(F)c1 [compound 703] | 39 | 97 | 98 | 100 | 100 | 100 | 99 |  |  |  |  |  |  | 
25 | COc1cc(F)c(-c2c(Cl)nc(Br)n2-c2ccc(OC)nc2)c(F)c1 [compound 705] | 100 | 100 | 100 | 99 | 100 | 99 | 99 |  |  |  |  |  |  | 
